Assay results published in PMC10475101, “Selective steroidogenic cytochrome P450 haem iron ligation by steroid-derived isonitriles” (Communications Chemistry, 2023).
Entries after “also recorded” stand apart in the source; their conditions may differ.

Experiments:
CYP17A1 [1] = target: T1, CYP17A1 (Homo sapiens, UniProt P05093); experiment: Ligand binding assay (UV-visible difference spectra titration); conditions: for Soret peak after titration (heme spectral shift from 417 nm water-bound): ferric CYP17A1, 430 nm = Fe—C isonitrile bond, 424 nm = type II Fe—N
T1 construct: made in house
T1 sequence (P05093 1-508): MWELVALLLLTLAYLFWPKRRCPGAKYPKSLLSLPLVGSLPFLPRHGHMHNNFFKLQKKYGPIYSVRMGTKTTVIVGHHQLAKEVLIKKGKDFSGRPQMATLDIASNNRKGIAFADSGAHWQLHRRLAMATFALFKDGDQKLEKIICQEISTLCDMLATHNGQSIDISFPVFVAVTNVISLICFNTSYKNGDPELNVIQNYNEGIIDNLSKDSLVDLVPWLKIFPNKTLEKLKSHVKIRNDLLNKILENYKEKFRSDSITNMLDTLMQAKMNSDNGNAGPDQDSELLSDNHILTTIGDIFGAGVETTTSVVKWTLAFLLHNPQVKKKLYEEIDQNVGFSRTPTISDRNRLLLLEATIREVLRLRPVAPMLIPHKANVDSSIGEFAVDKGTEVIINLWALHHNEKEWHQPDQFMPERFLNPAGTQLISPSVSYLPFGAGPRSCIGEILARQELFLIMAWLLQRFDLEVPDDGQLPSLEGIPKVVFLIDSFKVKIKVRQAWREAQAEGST
Experimental: (§1) (Adapted from DeVore, et al.)[25] Ligand interaction with the heme iron was evaluated by titrating ligands into a cuvette containing purified CYP17A1[14], CYP2D6 L230D/L231R[26], or CYP3A4[27] and measured using a UV-visible scanning spectrophotometer. Enzyme was diluted to 0.2 µM in 100 mM potassium phosphate buffer (pH 7.4), 20% glycerol, and 100 mM sodium chloride and divided equally between two 5 mL cuvettes to evaluate high-affinity binding. Ligands dissolved in dimethylsulfoxide (DMSO) were added to the sample cuvette and an equal volume of DMSO to the reference cuvette. Difference spectra were recorded from 300 to 500 nm after equilibration of enzyme and ligand. Binding to the enzyme was measured as the difference in maximal and minimal absorbance: A387—A419 for pregnanolone and 3-formyl pregnanolone, and A435—A393 for compound 1 with CYP17A1; A434—A414 for compound 1 with CYP3A4 and CYP2D6. The dissociation constant and maximum spectral change were calculated using tight-binding or quadratic equation. All data fitting was accomplished using GraphPad Prism 9. Details of fitting are provided in Supplementary Information, and numerical data used to generate graphs in Figs. 2, 4 and 5 are provided in Supplementary Data 3 in Excel format.

CYP106A2 = CYP106A2 (Priestia megaterium, UniProt Q06069); experiment: Absorbance difference spectra titration of CYP106A2; format: binding, bacterial; conditions: 1 µM CYP106A2; for difference spectrum increase / λmax on binding to CYP106A2: 393 nm = type I, 435 nm = heme Fe-isonitrile bond
CYP106A2, sequence (Q06069 whole entry): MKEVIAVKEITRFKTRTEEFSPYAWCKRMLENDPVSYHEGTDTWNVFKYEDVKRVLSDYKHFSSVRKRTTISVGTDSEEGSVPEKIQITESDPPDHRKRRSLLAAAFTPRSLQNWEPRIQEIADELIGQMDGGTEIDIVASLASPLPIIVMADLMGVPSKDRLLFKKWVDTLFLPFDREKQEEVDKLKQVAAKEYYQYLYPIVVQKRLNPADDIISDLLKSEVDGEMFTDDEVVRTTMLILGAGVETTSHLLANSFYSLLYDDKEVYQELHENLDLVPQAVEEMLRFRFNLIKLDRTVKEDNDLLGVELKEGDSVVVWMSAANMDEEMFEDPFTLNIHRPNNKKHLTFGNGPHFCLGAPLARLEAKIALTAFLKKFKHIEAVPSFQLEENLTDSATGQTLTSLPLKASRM
Experimental: Fig. 5 CYP106A2 interaction with steroidal isonitriles. […] Maximum concentration of 2 (light blue trace) is 20 µM. […] Maximum concentration of 4 is ~10 µM (blue trace). C Overlay of 800 MHz ^1H,^15N-TROSY-HSQC spectra of ^15N-Gly-labeled CYP106A2 with levopimaric acid p-benzoquinone Diels-Alder adduct bound after reduction with sodium dithionite and treatment with carbon monoxide (red), or with 7,17-(bis)isonitrile 4 (blue) after anaerobic reduction with sodium dithionite.

CYP17A1 [2] = target: T2, CYP17A1 (Homo sapiens, UniProt P05093); experiment: biochemical
T2 construct: made in house
T2 sequence (P05093 24-508 limits assumed): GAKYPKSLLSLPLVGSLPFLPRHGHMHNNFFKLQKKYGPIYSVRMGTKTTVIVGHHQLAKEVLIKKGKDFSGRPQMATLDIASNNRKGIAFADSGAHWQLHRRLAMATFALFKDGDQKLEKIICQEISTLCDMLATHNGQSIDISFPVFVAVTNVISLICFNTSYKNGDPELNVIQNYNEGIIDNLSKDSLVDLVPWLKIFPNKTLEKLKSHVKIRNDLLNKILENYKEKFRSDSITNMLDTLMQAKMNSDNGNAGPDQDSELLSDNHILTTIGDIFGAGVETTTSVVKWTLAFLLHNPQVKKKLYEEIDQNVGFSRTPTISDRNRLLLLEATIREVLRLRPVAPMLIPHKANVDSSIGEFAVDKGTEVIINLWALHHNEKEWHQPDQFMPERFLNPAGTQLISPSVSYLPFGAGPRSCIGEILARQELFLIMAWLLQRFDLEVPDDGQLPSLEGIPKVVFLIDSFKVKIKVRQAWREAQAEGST
Experimental: Metabolic activity of CYP17A1 was evaluated by measuring 17α-hydroxylation of progesterone as detected by HPLC with UV detection at 240 nm. A 1:4 ratio of CYP17A1 to recombinant NADPH-cytochrome P450 reductase was mixed and incubated on ice for 20 min. […] Reaction vials were warmed to 37 °C for 3 min, then catalysis was initiated by adding NADPH to a final concentration of 1 mM. After 10 min, metabolism was quenched by adding 300 µL of 20% trichloroacetic acid and placed on ice. The reaction vials were centrifuged to pellet the precipitated protein, then the supernatant was injected onto a C18 column for HPLC identification of product. Metabolite elution was normalized to β-estradiol as an internal standard. A standard curve of known product concentrations was used to convert normalized area under curve to amount of product produced. A four-parameter variable-slope equation was used to fit the data and calculate IC50 values for inhibitors using GraphPad Prism 9.
195 Metabolic activity of CYP17A1 was evaluated by measuring 17α-hydroxylation of progesterone as detected
196 by HPLC with UV detection at 240 nm. A 1:4 ratio of CYP17A1 to recombinant NADPH-cytochrome P450
197 reductase was mixed and incubated on ice for 20 minutes. This mixture was added to buffer (50 mM Tris, pH
199 Reaction vials were warmed to 37 °C for three minutes, then catalysis was initiated by adding NADPH to a
200 final concentration of 1 mM. After 10 minutes, metabolism was quenched by adding 300 µL of 20%
201 trichloroacetic acid and placed on ice. The reaction vials were centrifuged to pellet the precipitated protein,
202 then the supernatant was injected onto a C18 column (Phenomenex, Luna, 50 x 4.6 mm) for HPLC. The 30-
203 minute HPLC method ran at 0.8 mL/min and started with a mobile phase of 60% acetonitrile, 40% water with
204 0.2% acetic acid for five minutes, in creased to 80% acetonitrile over 10 minutes, held at 80% acetonitrile for
205 five minutes, 100% acetonitrile for five minutes, then returned to 60% acetonitrile to prepare for the next
206 sample. Metabolite elution was normalized to β-estradiol as an internal standard. A standard curve of known
207 product concentrations was used to convert normalized area under curve to amount of product produced. A
208 four-parameter variable-slope equation (Y=Ymin + (Ymax-Ymin)/(1+(IC50/X)^(Hill Slope))) was used to fit the data
209 and calculate IC50 values for inhibitors using GraphPad Prism 9.

CYP3A4 = target: T3, CYP3A4 (Homo sapiens, UniProt P08684); experiment: in vitro; format: binding
T3 construct: made in house
T3 sequence (P08684 whole entry): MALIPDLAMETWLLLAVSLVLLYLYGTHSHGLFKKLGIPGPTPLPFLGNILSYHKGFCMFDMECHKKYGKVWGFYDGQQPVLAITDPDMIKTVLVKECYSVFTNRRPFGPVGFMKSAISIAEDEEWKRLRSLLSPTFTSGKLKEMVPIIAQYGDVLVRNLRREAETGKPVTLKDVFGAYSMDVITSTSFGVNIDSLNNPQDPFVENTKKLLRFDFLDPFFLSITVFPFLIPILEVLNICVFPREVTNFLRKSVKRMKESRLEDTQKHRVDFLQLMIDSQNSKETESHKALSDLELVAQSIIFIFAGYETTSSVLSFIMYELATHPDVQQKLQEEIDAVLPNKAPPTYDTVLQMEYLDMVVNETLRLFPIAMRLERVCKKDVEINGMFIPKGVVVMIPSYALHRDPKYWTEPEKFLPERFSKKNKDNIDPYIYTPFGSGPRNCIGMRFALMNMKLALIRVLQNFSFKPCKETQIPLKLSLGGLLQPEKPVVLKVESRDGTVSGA
Experimental: as §1

SMILES	Soret peak after titration (heme spectral shift from 417 nm water-bound) (CYP17A1 [1]) [nm]	spectral response / binding mode on CYP106A2 (CYP106A2)	difference spectrum increase / λmax on binding to CYP106A2 (CYP106A2) [nm]	further results
[C-]#[N+][C@H]1CC[C@H]2[C@@H]3CC[C@H]4C[C@@H](OC=O)CC[C@]4(C)[C@H]3CC[C@]12C [Compound 2]	420	weak type I (substrate-like) blue shift	393	
C[C@]12CC[C@H](O)CC1=CC[C@@H]1[C@@H]2CC[C@]2(C)C(c3cccnc3)=CC[C@@H]12 [abiraterone]	424			Kd (CYP17A1 [1]; protein 200 nM, 95% CI undefined to 3.8 nM, read-out: dissociation constant estimate (tight binding equation fit)): 0.044 nM; slope of the inhibition curve (CYP17A1 [2]; CYP17A1 progesterone hydroxylation): 1.1; IC50 fold lower than for 1 (CYP17A1 [2]; abiraterone versus 1): 27 fold; IC50 (CYP17A1 [2]; triplicate, four-parameter variable-slope fit, read-out: IC50, CYP17A1 progesterone hydroxylation): 47 nM
CC(=O)[C@H]1CC[C@H]2[C@@H]3CC[C@H]4C[C@@H](OC=O)CC[C@]4(C)[C@H]3CC[C@]12C [3β-formyl-5α-pregnanalone, reference compound]				Kd fold higher than 20-(R)-1 (CYP3A4; CYP3A4, parent steroid versus 20-(R)-1): ~ 20 fold; Kd (CYP3A4; protein 200 nM, 5 cm cuvette, tight-binding or quadratic equation, Fig. 4B: n = 3, 95% CI 120–215 nM, read-out: dissociation constant (Kd)): ~3200 nM
[C-]#[N+]C1C=C2C[C@@H](OC=O)CC[C@]2(C)[C@H]2CC[C@]3(C)[C@@H]([N+]#[C-])CC[C@H]3[C@H]12 (stereo partly shown) [Compound 4]		does form an iron-isonitrile bond; also recorded: bind with the shift expected for Fe—CN—R bond formation	435	
[C-]#[N+][C@H]1CC[C@H]2[C@@H]3CC=C4C[C@@H](OC=O)CC[C@]4(C)[C@H]3CC[C@]12C [Compound 3]			393	
